Results reported in patent publication US11858938B2, “Imidazo-fused heterocycles and uses thereof” (Ligand Pharmaceuticals Incorporated, priority 2015, dated 2024).

Target: T1, Recombinant human FLT3 (Homo sapiens, UniProt P36888)
T1 construct: His6 (C)
T1 sequence (P36888 27-993): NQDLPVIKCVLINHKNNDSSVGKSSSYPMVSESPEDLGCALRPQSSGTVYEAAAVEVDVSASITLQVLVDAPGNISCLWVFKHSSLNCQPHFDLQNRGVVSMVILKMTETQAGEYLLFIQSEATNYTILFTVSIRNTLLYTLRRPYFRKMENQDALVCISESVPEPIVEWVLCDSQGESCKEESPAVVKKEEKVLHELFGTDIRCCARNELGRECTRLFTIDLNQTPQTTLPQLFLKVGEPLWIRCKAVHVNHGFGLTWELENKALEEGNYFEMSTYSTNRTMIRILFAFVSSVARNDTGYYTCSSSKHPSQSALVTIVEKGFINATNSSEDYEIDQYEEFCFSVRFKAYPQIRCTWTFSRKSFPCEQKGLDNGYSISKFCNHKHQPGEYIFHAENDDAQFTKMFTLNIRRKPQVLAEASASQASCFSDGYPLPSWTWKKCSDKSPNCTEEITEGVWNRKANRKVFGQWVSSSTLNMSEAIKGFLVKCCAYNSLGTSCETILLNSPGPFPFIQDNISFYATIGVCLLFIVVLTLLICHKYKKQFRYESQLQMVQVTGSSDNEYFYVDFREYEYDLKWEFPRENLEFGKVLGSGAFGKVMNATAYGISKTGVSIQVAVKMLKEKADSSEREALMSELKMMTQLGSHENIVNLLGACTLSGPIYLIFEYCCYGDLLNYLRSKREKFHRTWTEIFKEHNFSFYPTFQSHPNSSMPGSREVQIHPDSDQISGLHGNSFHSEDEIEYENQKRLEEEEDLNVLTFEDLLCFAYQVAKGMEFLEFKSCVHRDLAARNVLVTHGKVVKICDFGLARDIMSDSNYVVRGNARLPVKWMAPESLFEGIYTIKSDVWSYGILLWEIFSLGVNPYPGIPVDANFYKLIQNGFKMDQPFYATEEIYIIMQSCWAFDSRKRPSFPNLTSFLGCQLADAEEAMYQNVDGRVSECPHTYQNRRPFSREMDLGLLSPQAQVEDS
Experiment: Flt3 kinase inhibitory assay (radioisotope filtration binding, 33P-ATP)
Format: biochemical
Settings: read-out: Flt3 inhibition IC50
Method: The assay is performed using traditional radioisotope filtration binding.
A base reaction buffer is prepared consisting of 20 mM Hepes (pH 7.5), 10 mM MgCl2, 1 mM EGTA, 0.02% Brij35, 0.02 mg/ml BSA, 0.1 mM […], 2 mM DTT, 1% DMSO. The peptide substrate abltide [[…]] is added to the base reaction buffer to yield a final concentration of 5 μM. Additional cofactors (1.5 mM CaCl2, 16 ug/ml Calmodulin, and 2 mM MnCl2) are added to the buffer/substrate solution. Recombinant human FLT3 (baculovirus expression system using a C-terminal His6-tag) is added to the solution and gently mixed. Test compounds are dissolved in DMSO and added to the buffer/kinase solution to yield a final concentration of 5 μM. […] The reaction is initiated by the addition of ^33P-ATP (specific activity […]) into the reaction mixture to a final concentration of 10 μM. The kinase reaction was incubated for 120 minutes at room temperature. The reactions are spotted onto P81 ion exchange paper (Whatman #3698-915) and the filter papers are extensively washed in 0.75% Phosphoric acid and beta emissions are measured.

IC50 [nM]	SMILES
0.11	c1cc(-c2cn3cc(Nc4cc(CN5CCCC5)ccn4)nc3cn2)ccn1 [Compound 101]
0.25	c1cc(-c2ccc3nc(Nc4cc(CN5CCCC5)ccn4)cn3n2)ccn1 [Compound 102]
